Assay results published in PubChem BioAssay (NCI).
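Grown in 96-well plates, cells were treated for 48 hours with each compound at five concentrations. Insufficient inhibition: endpoint recorded as highest concentration tested. GI50 is the concentration that inhibits growth by half. TGI denotes the concentration required for complete inhibition of growth.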

Tests used:
Assay in all cases: growth of human tumour cells (NCI), 48 h
[1] = test system: HS 578T breast
[2] = test system: A549 NSCLC
[3] = test system: SF-295 CNS
[4] = test system: DU-145 prostate
[5] = test system: PC-3 prostate
[6] = test system: MDA-MB-231 breast
[7] = test system: SF-539 CNS
[8] = test system: T-47D breast
[9] = test system: NCI-H522 lung
[10] = test system: CAKI-1 renal
[11] = test system: OVCAR-5 ovarian
[12] = test system: MOLT-4 leukemia
[13] = test system: LOX IMVI melanoma
[14] = test system: 786-0 renal
[15] = test system: SW-620 colon
[16] = test system: CCRF-CEM leukemia
[17] = test system: SK-MEL-2 melanoma
[18] = test system: OVCAR-4 ovarian
[19] = test system: IGROV1 ovarian
[20] = test system: COLO 205 colon
[21] = test system: MDA-MB-435
[22] = test system: K-562 leukemia
[23] = test system: HT29 colon
[24] = test system: SN12C renal
[25] = test system: UACC-62 melanoma
[26] = test system: NCI/ADR-RES ovarian
[27] = test system: HOP-62 NSCLC
[28] = test system: HOP-92 NSCLC
[29] = test system: UACC-257 melanoma
[30] = test system: OVCAR-3 ovarian
[31] = test system: HCC-2998 colon
[32] = test system: HCT-15 colon
[33] = test system: UO-31 renal
[34] = test system: MCF7 breast
[35] = test system: HCT-116 colon
[36] = test system: OVCAR-8 ovarian
[37] = test system: M14 melanoma
[38] = test system: SK-MEL-28 melanoma
[39] = test system: SR leukemia
[40] = test system: SK-OV-3 ovarian
[41] = test system: BT-549 breast
[42] = test system: ACHN renal
[43] = test system: U251 CNS
[44] = test system: TK-10 renal
[45] = test system: SK-MEL-5 melanoma
[46] = test system: MALME-3M melanoma
[47] = test system: HL-60(TB) leukemia
[48] = test system: KM12 colon
[49] = test system: RPMI-8226 leukemia
[50] = test system: NCI-H226 lung
[51] = test system: SNB-75 CNS
[52] = test system: NCI-H23 lung
[53] = test system: SF-268 CNS
[54] = test system: SNB-19 CNS
[55] = test system: EKVX NSCLC
[56] = test system: NCI-H460 lung
[57] = test system: A498 renal

## CCNCCOc1ccc(/C(=C(/CC)c2ccc(Cl)cc2)c2ccc(OCCCN(C)C)cc2)cc1
[1]
  GI50: 3.26 µM
  TGI: 7.63 µM
[2]
  GI50: 3.33 µM
  TGI: 7.15 µM
[3]
  GI50: 4.44 µM
  TGI: 8.24 µM
[4]
  GI50: 3.99 µM
  TGI: 7.5 µM
[5]
  GI50: 4.01 µM
  TGI: 9.01 µM
[6]
  GI50: 4.06 µM
  TGI: 7.73 µM
[7]
  GI50: 3.97 µM
  TGI: 7.51 µM
[8]
  GI50: 3.05 µM
  TGI: 7.55 µM
[9]
  GI50: 4 µM
  TGI: 8.04 µM
[10]
  GI50: 4.39 µM
  TGI: 8.05 µM
[11]
  GI50: 4.07 µM
  TGI: 7.67 µM
[12]
  GI50: 4.56 µM
  TGI: 9.41 µM
[13]
  GI50: 3.72 µM
  TGI: 7.37 µM
[14]
  GI50: 3.57 µM
  TGI: 7.44 µM
[15]
  GI50: 1.75 µM
  TGI: 5.24 µM
[16]
  GI50: 5.08 µM
  TGI: 11.4 µM
[17]
  GI50: 4.13 µM
  TGI: 7.77 µM
[18]
  GI50: 3.83 µM
  TGI: 8.07 µM
[19]
  GI50: 4.17 µM
  TGI: 7.85 µM
[20]
  GI50: 3.13 µM
  TGI: 7.84 µM
[21]
  GI50: 3.77 µM
  TGI: 7.34 µM
[22]
  GI50: 0.933 µM
  TGI: 2.43 µM
[23]
  GI50: 0.98 µM
  TGI: 3.79 µM
[24]
  GI50: 3.84 µM
  TGI: 7.42 µM
[25]
  GI50: 4.48 µM
  TGI: 8.22 µM
[26]
  GI50: 4.19 µM
  TGI: 8.08 µM
[27]
  GI50: 4.24 µM
  TGI: 8.69 µM
[28]
  GI50: 0.818 µM
  TGI: 4.47 µM
[29]
  GI50: 4.04 µM
  TGI: 7.83 µM
[30]
  GI50: 3.46 µM
  TGI: 6.87 µM
[31]
  GI50: 3.93 µM
  TGI: 7.72 µM
[32]
  GI50: 2.19 µM
  TGI: 5.54 µM
[33]
  GI50: 3.32 µM
  TGI: 6.68 µM
[34]
  GI50: 1.3 µM
  TGI: 4.94 µM
[35]
  GI50: 2.78 µM
  TGI: 6.48 µM
[36]
  GI50: 3.91 µM
  TGI: 7.64 µM
[37]
  GI50: 4.3 µM
  TGI: 8.31 µM
[38]
  GI50: 4.16 µM
  TGI: 7.78 µM
[39]
  GI50: 2.98 µM
  TGI: 8.52 µM
[40]
  GI50: 4.36 µM
  TGI: 8.34 µM
[41]
  GI50: 3.45 µM
  TGI: 7.16 µM
[42]
  GI50: 4.41 µM
  TGI: 8.02 µM
[43]
  GI50: 3.17 µM
  TGI: 6.61 µM
[44]
  GI50: 3.99 µM
  TGI: 8.07 µM
[45]
  GI50: 4.51 µM
  TGI: 8.21 µM
[46]
  GI50: 3.95 µM
  TGI: 7.57 µM
[47]
  GI50: 5.83 µM
  TGI: 11.1 µM
[48]
  GI50: 3.94 µM
  TGI: 7.59 µM
[49]
  GI50: 4.98 µM
  TGI: 13.5 µM
[50]
  GI50: 3.74 µM
  TGI: 7.59 µM
[51]
  GI50: 3.68 µM
  TGI: 7.45 µM
[52]
  GI50: 4.31 µM
  TGI: 8.15 µM
[53]
  GI50: 3.89 µM
  TGI: 7.92 µM
[54]
  GI50: 4.45 µM
  TGI: 8.21 µM
[55]
  GI50: 4.32 µM
  TGI: 8.1 µM
[56]
  GI50: 3.9 µM
  TGI: 7.6 µM
[57]
  GI50: 3.38 µM
  TGI: 6.98 µM
